Experiment [1] deals with Spodoptera litura. As to the kind of experiment: Pesticidal effect on Spodoptera litura by bait crop immersion treatment. The format is in vivo. The settings on record: 48 h, fourth-instar larvae, 2 days after, 25° C. As for the experimental part: Mortality (%)=(dead larvae number/tested larvae number)×100 Equation [1]
Test Example 3: Pesticidal Effect on Spodoptera litura by Bait Crop Immersion Treatment
To 10 mg of the compound (13) or (15) was added 0.2 ml of acetone containing 5% of Tween 20 (product name: SOLGEN (registered trademark) TW-20, manufactured by Dai-ichi Kogyo Seiyaku Co., Ltd.) to cause dissolution, and the solution was diluted with a 5,000-fold diluted solution of a spreading agent (product name: Dine (registered trademark), manufactured by Sumitomo Chemical Garden Products Inc.) to prepare a diluted liquid of the compound. A commercially available pyriproxyfen emulsifiable concentrate manufactured by Sumitomo Chemical Co., Ltd. under the product name of Lano (registered trademark) emulsifiable concentrate was diluted with a 5,000-fold diluted solution of a spreading agent (product name: Dine (registered trademark), manufactured by Sumitomo Chemical Garden Products Inc.) to prepare a diluted liquid of pyriproxyfen. These diluted liquids were mixed to prepare a test solution of prescribed concentration. […] The cup was stored in a constant temperature breeding room (25° C.), and the number of dead larvae was counted 2 days after, and the mortality was determined by the above equation [1].

The test system of experiment [2] is Plutella xylostella. As to the kind of experiment: Pesticidal effect on Plutella xylostella by bait crop immersion treatment. The settings on record: 48 h, 0.8 ppm alone (Comparative Example 4-2), third-instar larvae, 2 days after, 25° C. It counts as in vivo. As for the experimental part:
Test Example 1: Pesticidal Effect on Plutella xylostella by Bait Crop Immersion Treatment
To 10 mg of the compound (1) was added 0.2 ml of acetone containing 5% of Tween 20 (product name: SOLGEN (registered trademark) TW-20, manufactured by Dai-ichi Kogyo Seiyaku Co., Ltd.) to cause dissolution, and the solution was diluted with a 5,000-fold diluted solution of a spreading agent (product name: Dine (registered trademark), manufactured by Sumitomo Chemical Garden Products Inc.) to prepare a diluted liquid of the compound (1). […] The cup was stored in a constant temperature breeding room (25° C.), and the number of dead larvae was counted 2 days after, and the mortality was determined by the following equation [1]. […]
To 10 mg of the compound (13) was added 0.2 ml of acetone containing 5% of Tween 20 (product name: SOLGEN (registered trademark) TW-20, manufactured by Dai-ichi Kogyo Seiyaku Co., Ltd.) to cause dissolution, and the solution was diluted with a 5,000-fold diluted solution of a spreading agent (product name: Dine (registered trademark), manufactured by Sumitomo Chemical Garden Products Inc.) to prepare a diluted liquid of the compound (13). […] The cup was stored in a constant temperature breeding room (25° C.), and the number of dead larvae was counted 2 days after, and the mortality was determined by the above equation [1].

As for `CC(COc1ccc(Oc2ccccc2)cc1)Oc1ccccn1` (racemic) [pyriproxyfen, 4-phenoxyphenyl (RS)-2-(2-pyridyloxy)propyl ether], the mortality at 0.2 ppm in experiment [1] (0.2 ppm alone (Comparative Examples 5-2, 7-2)) was 30%. In addition, the mortality at 3.13 ppm in experiment [1] (3.13 ppm alone (Comparative Example 6-2)) was determined as 50%. Also, in experiment [2], the mortality at 0.8 ppm was found to be 40%.

These data come from patent publication US20120208853A1, “PEST CONTROL COMPOSITION” (priority 2009, published 2012).
